Values of other authors in patent publication US20260373185A1, “METHODS FOR SEQUENTIALLY ADMINISTERING TAS-102 AND BCL-2 INHIBITOR FOR CANCER TREATMENT” (Health Research, Inc., priority 2023, published 2026).

Assays:
p53-deficient cancers = settings: current DNA-damaging drugs
BCL-w = settings: cell-free assays
A1 = settings: relative to BCL-xL, BCL-2 and BCL-w

CC1(C)CCC(CN2CCN(c3ccc(C(=O)NS(=O)(=O)c4ccc(NCC5CCOCC5)c([N+](=O)[O-])c4)c(Oc4cnc5[nH]ccc5c4)c3)CC2)=C(c2ccc(Cl)cc2)C1 [Venetoclax]
activity to MCL-1 (MCL-1; cell-free assays): no activity

Nc1ccn([C@@H]2O[C@H](CO)[C@@H](O)C2(F)F)c(=O)n1 [gemcitabine]
toxicity by p53 status (p53-deficient cancers): toxicity regardless of p53 status

CC1(C)CCC(c2ccc(Cl)cc2)=C(CN2CCN(c3ccc(C(=O)NS(=O)(=O)c4ccc(N[C@H](CCN5CCOCC5)CSc5ccccc5)c(S(=O)(=O)C(F)(F)F)c4)cc3)CC2)C1 [Navitoclax]
Ki (BCL-w): ≤ 1 nM | binding to Mcl-1 (MCL-1; relative to BCL-xL, BCL-2 and BCL-w): binds more weakly | binding to A1 (A1): binds more weakly

N.N.[Cl][Pt][Cl] [cisplatin]
toxicity by p53 status (p53-deficient cancers): toxicity regardless of p53 status
